Source: PubChem BioAssay AID504481 (NMMLSC, 2011)
The source made the active and inactive calls.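 How the source made its calls: active means fold change below 0.65 in a panel strain, matching the primary screen cutoff; inactive means the rest.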

Key:
Test in all cases: GFP reporter expression in transducer deletion yeast, mechanism study for yeast TOR pathway modulator project, S. cerevisiae, transducer mutant strains, GFP-tagged proteins (AID 504481);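 further: 1 = DMSO wells as ratio of mean channel GFP fluorescence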
Settings in all cases: S. cerevisiae transducer mutants, GFP-fusion expression, flow cytometry, 3 h
[1] = tested on: YCR005C
[2] = tested on: YBR084C-A
[3] = tested on: BY4741
[4] = tested on: YNL142W
[5] = tested on: YKL103C
[6] = tested on: YCL025C

Measured: fold change

O=C(OCn1ncc(Br)c(Br)c1=O)c1ccc(F)cc1
active: [1] 1.68 | [5] 1.76
inactive: [2] 1.02 | [3] 0.946 | [4] 1.06 | [6] 0.996

O=C(Oc1ccnc2cc(Cl)ccc12)N1CCCCCC1
active: [4] 1.97 | [6] 1.78
inactive: [1] 0.6 | [2] 1.09 | [3] 0.878 | [5] 0.97

C/C(=N\NC(=O)c1ccc(C(C)(C)C)cc1)c1ccccn1
inactive: [1] 1.47 | [2] 0.975 | [3] 0.905 | [4] 0.97 | [5] 0.921 | [6] 1

c1ccc(-c2cccc(-c3ccccn3)n2)nc1
inactive: [1] 0.73 | [2] 0.903 | [3] 0.815 | [4] 0.833 | [5] 1.41 | [6] 0.958

CCc1ccc(OCC(=O)NNC(=S)NC(=O)C2CC2)c(Br)c1
inactive: [1] 1.17 | [2] 1.09 | [3] 1.54 | [4] 1.15 | [6] 1.03
active: [5] 2.4

Cc1cc(C(=O)Nc2nc(-c3ccccn3)cs2)ccc1[N+](=O)[O-]
inactive: [1] 0.918 | [2] 0.967 | [3] 0.913 | [4] 0.965 | [5] 1.01 | [6] 0.981

COc1ccc(C(=O)NNC(=S)NC(=O)/C=C/c2cccs2)cc1
active: [5] 1.51
inactive: [1] 1.07 | [2] 1.23 | [3] 1.03 | [4] 1.13 | [6] 1.38

Cc1ccc(S(=O)(=O)c2ncccc2[N+](=O)[O-])cc1
inactive: [1] 0.87 | [2] 0.924 | [3] 1 | [4] 0.701 | [5] 1.33 | [6] 0.853

CC(=O)SC(C[N+](=O)[O-])c1cn(C(C)=O)c2ccccc12 (stereo not drawn)
inactive: [1] 0.93 | [2] 1.08 | [3] 1 | [4] 0.785 | [5] 1.48 | [6] 0.77

COc1ccc([N+](=O)[O-])c(S(=O)(=O)c2ccccc2)n1
inactive: [1] 0.91 | [2] 0.944 | [3] 0.935 | [4] 0.958 | [6] 1.08
active: [5] 1.86

CCCCC(=O)NNC(=S)NC(=O)c1ccc(C)cc1
active: [5] 2.75
inactive: [1] 1.02 | [2] 1.27 | [3] 1.66 | [4] 1.25 | [6] 1.12

O=[N+]([O-])c1cc(O)c2ncccc2c1
inactive: [1] 0.721 | [2] 0.972 | [3] 0.838 | [4] 0.761 | [5] 1.13 | [6] 0.835

COc1ccc([N+](=O)[O-])c(S(=O)(=O)c2ccc(Cl)cc2)n1
inactive: [1] 0.893 | [2] 0.841 | [3] 1.1 | [4] 1.28 | [6] 1.31
active: [5] 2.87

Cn1ncc(S(=O)(=O)Cc2ccccc2)c(Cl)c1=O
inactive: [1] 1.24 | [2] 0.743 | [3] 1.33 | [4] 1.47 | [6] 1.13
active: [5] 1.83

O=C(CCc1ccccc1)NNC(=S)NC(=O)c1ccccc1
inactive: [1] 1.32 | [2] 1.22 | [3] 1.64 | [4] 1.2 | [6] 0.995
active: [5] 2.56

Cc1ccc(C(=O)NNC(=S)NC(=O)COc2ccccc2)cc1
active: [5] 1.93
inactive: [1] 1.34 | [2] 1.19 | [3] 1.28 | [4] 1.08 | [6] 1

CC(=O)c1ccc(N2CCN(C(=O)c3ccc(Br)cc3)CC2)c(F)c1
active: [1] 1.72 | [5] 1.69
inactive: [2] 1.27 | [3] 1.31 | [4] 1.3 | [6] 1.22

Cc1ccc(C2=NOC(=O)/C2=C\c2ccc(C)o2)cc1
inactive: [1] 1.25 | [2] 0.943 | [3] 1.8 | [4] 1.11 | [5] 1.2 | [6] 0.812

CC(C)(C)n1nc(-c2ccc(Cl)cc2)c2c(N)ncnc21
active: [2] 0.489
inactive: [1] 0.358 | [3] 0.757 | [4] 0.924 | [5] 1.03 | [6] 0.899

N/C(Cc1ccc(Cl)cc1)=N\OC(=O)c1cccc2ccccc12
inactive: [2] 0.913 | [3] 1.27 | [4] 1.22 | [5] 1.44 | [6] 0.919
active: [1] 2.47

CC(C)(C)C(=O)NC(=S)NNC(=O)c1ccc(-c2ccccc2)cc1
active: [5] 2.06
inactive: [1] 1.2 | [2] 1.19 | [3] 1.48 | [4] 1.46 | [6] 1.32

O=[N+]([O-])c1ccc(O)c2ncccc12
inactive: [1] 1.21 | [2] 1.19 | [3] 1.48 | [4] 1.26 | [6] 1.47
active: [5] 2.22

O=C(Oc1c(Cl)cc(Cl)c2cccnc12)c1ccco1
inactive: [1] 1.2 | [2] 1.14 | [3] 1.03 | [4] 0.881 | [5] 1.37 | [6] 0.784
